Laboratory results taken from patent US9289443B2, “Pharmaceutical composition and method for preventing or treating hepatitis C” (INDUSTRIAL TECHNOLOGY RESEARCH INSTITUTE, priority 2010, dated 2016).
Read-outs that look alike come from different tables or passages of the source.

Experiments:
[1] = test system: Huh-luc/neo-ET cells; assay: Cell cytotoxic test (MTT) on Huh-luc/neo-ET cells; format: cell-based; settings: two-day culture; for CC15: concentration for 15% cell kill; for CC50: concentration for 50% cell kill
Procedure: (§1) Cell Cytotoxic Test on Huh-luc/noe-ET Cells
(§2) Huh-luc/neo-ET cells with a concentration of 2.5×10^4 cells/100 μl/well were seeded into a 96 well culture plate (Corning Incorporation COSTAR, 3599) and placed into a cell incubator for culturing.
(§3) The next day, the oleanolic acid derivatives as listed in the following Tables 1 and 2 were diluted with a DMEM culture medium to the concentrations of 28.73 μg/ml, 9.57 μg/ml, 3.19 μg/ml, 1.06 μg/ml, 0.35 μg/ml, 0.11 μg/ml, 0.039 μg/ml and 0.013 μg/ml, respectively, or diluted to the concentrations of 114.92 μg/ml, 38.33 μg/ml, 12.77 μg/ml, 4.25 μg/ml, 1.42 μg/ml, 0.46 μg/ml, 0.16 μg/ml and 0.057 μg/ml, respectively. The initial medium in the 96 well culture plate was sucked out by a vacuum pump (DOAT-704AA) without removing the cells. Then, the culture medium containing the oleanolic acid derivatives were added into the 96 well culture plate containing 100 μl/well of the cells as the experiment groups, while the untreated culture mediums were added to the cells as a control.
(§4) After a two-day culture, the medium was removed and each well containing cells was washed by 100 μl of 1×PBS (1 mM KH2PO4, 10 mM Na2HPO4, 137 mM NaCl, 2.7 mM KCl) twice. Precipitates were recorded and PBS was removed. 50 μl of the medium containing 0.5 mg/ml of MTT (Sigma, M2128) was added into each well of the 96 well culture plate. The 96 well culture plate was placed in a CO2 culture incubator for 1 hour. Subsequently, 150 μl of DMSO (Riedel-de Haül, 60153) was added to each well of the 96 well culture plate and vortexed (KS shaker Type 670) to thoroughly mix the resulting purple precipitates. The 96 well culture plate was then placed in a continuous wave length microwell plate analysis system (Molecular Devices, SPECTRAMAX 190) to measure the absorbance of cells at a wavelength of 560 nm.
(§5) The average absorbance of the control was set as 100% of the cell survival rates (%) to calculate the cell survival rates (%) of the experiment groups with different concentrations of the oleanolic acid derivatives.
(§6) The cell survival rate was calculated by the following formula: Absorbance of the experiment group/Absorbance of the control×100%
(§7) The data of the cell survival rates for all experiment groups were plotted on an x-y graph to see the distribution. A trend line was obtained. […]

[2] = test system: HCV replicon system (Huh-luc/neo-ET cell carrying I389luc-ubi-NS3-3'/ET); assay: Inhibition of the HCV replication by determining the firefly luciferase activity (HCV replicon system); format: cell-based, Hepatitis C virus; settings: for Inhibition rate (%) / inhibition at 10 µM: compound concentration 10 μM; for inhibition at 1 µM: compound concentration 1 μM; for EW (CC50/IC50): ratio of CC50/IC50
Excerpt: HCV replicon system was used to test the effects of compounds on the treatment and prevention of hepatitis C. The HCV replicon system has been acknowledged as a screening tool for new drugs (Lohmann, V. et al., 1999, Replication of subgenomic hepatitis C virus RNAs in hepatoma cell line, Science. Vol. 285, 110-113; Bartenschlager, R. 2002, Hepatitis C virus replicons: potential role for drug development, Nature Reviews/Drug Discovery. Vol. 1, 911-916; Vorlijk, J. M. et al., 2003, A replicon-based bioassay for the measurement of interferons in patients with chronic hepatitis C, Journal of Virological Methods. 110:201-209). The HCV replicon system includes a Huh-luc/neo-ET cell carrying I389luc-ubi-NS3-3′/ET gene construct which monitors the replicative capability of the HCV. In the HCV replicon system, a firefly luciferase-ubiquitin-neomycin fusion protein is expressed by the translation of the internal ribosomal entry site (IRES) of the HCV, and the hepatitis C viral nonstructural proteins (NS3-5B), which includes protease, helicase and polymerase, are expressed by the translation of the IRES of the encephalomyocarditis virus (EMCV).
The IRES of the hepatitis C virus or the hepatitis C viral nonstructural proteins consist of a replication complex. When the replication complex is affected by the candidate compound, the activity of the HCV replicon system is inhibited and the activity of the luciferase is reduced. Accordingly, the inhibition of the HCV can be estimated by determining the activity of the intensity of the luciferase expressed by the Huh-luc/noe-ET cell.
Inhibition of the HCV Replication by Determining the Firefly Luciferase Activity
as §2
The oleanolic acid derivatives as listed in Table 2 were co-cultured with Huh-luc/neo-ET cells for 2 days. The mediums were washed twice by 100 μl of 1×PBS (1 mM KH2PO4, 10 mM Na2HPO4, 137 mM NaCl, 2.7 mM KCl) and PBS was removed. 35 μl of 1× passive lysis buffer (Promega, E1941) was added to the cells and vortexed for 10 minutes to thoroughly lysis the cells.
30 μl/well of the cell suspension was then added to a 96 well white plate (NUNC, 236108) for the measurement of the luciferase activity. Subsequently, 40 μl/well of luminescence analysis buffer and 20 μl/well of luminescence substrate (1 mM D-Luciferin) were added into the 96 well white plates. The luciferase activity (Rlu/s) was measured by a microplate luminescence meter (Berthold, MPL4) immediately.
The luciferase activity of the control was set as a standard to calculate the inhibition rates (%) of HCV of the experiment groups. The inhibition rates was calculated by the following formula: […]
After the test compounds were serial diluted and the inhibition rates of the HCV replication were determined at different concentrations, the concentration at 50% inhibition of the HCV replication (IC50) was calculated by grafit5 software (Erithacus Software).
For each experiment, 0.5 ng/ml and 0.1 ng/ml of the PEG IFN alpha-2a were used as positive controls for the IC50 test. Meanwhile, 1 μg/ml of cyclosporine A (CsA) was also used as a positive control for the IC50 test.

[3] = Cell cytotoxic test (MTT) on Huh-luc/neo-ET cells; format: cell-based; settings: human, concentration for 50% cell kill, two-day culture
Procedure: as §1, §2, §3, §4, §5, §6, §7

[4] = 2 days co-culture, luciferase activity
[5] = Hepatitis C virus, Huh-luc/neo-ET, 48 h, 2 days co-culture, luciferase activity, read-out: Inhibition rate (%)
[6] = Hepatitis C virus, concentration for 50% inhibition of the HCV replication, Huh-luc/neo-ET replicon cells, read-out: IC50
[7] = Hepatitis C virus, Huh-luc/neo-ET
[8] = Hepatitis C virus, Huh-luc/neo-ET, 48 h, read-out: Inhibition rate (%)

| SMILES | CC15 [1] [µM] | CC50 [1] [µM] | Inhibition rate (%) [2, 4] [%] | CC50 at 2 days [3] [µM] | inhibition at 1 µM [2, 5] [%] | IC50 [2, 6] [µM] | EW (CC50/IC50) [2] | inhibition at 2 µM ([2]; Hepatitis C virus, Huh-luc/neo-ET, 48 h, compound concentration 2 μM, 2 days co-culture, luciferase activity, read-out: Inhibition rate (%)) [%] | IC50 [2, 7] [µM] | inhibition at 5 µM [2, 8] [%] | inhibition at 10 µM [2, 5] [%] |
| --- | --- | --- | --- | --- | --- | --- | --- | --- | --- | --- | --- |
| C[C@H]1O[C@@H](O[C@H]2CC[C@@]3(C)[C@@H](CC[C@]4(C)[C@@H]3C=C[C@]35OC[C@@]6(CCC(C)(C)C[C@H]63)[C@H](O)C[C@]54C)[C@]2(C)CO)[C@H](O)[C@@H](O[C@@H]2O[C@H](CO)[C@@H](O)[C@H](O)[C@H]2O)[C@H]1O [A05, Saikosaponin D] | 16.1 | 23.2 | 50 ± 11.6 |  |  |  |  |  |  |  |  |
| C=CC(C)(O)CC/C=C(\C)C(=O)OC1C(O)C(CO)OC(OC(=O)C23CCC(C)(C)CC2C2=CCC4C5(C)CCC(OC6OC(COC7OCC(OC(C)=O)C(O)C7OC7OC(COC(C)=O)C(O)C(O)C7OC(C)=O)C(O)C(O)C6OC6OCC(O)C(O)C6O)C(C)(C)C5CCC4(C)C2(C)C(O)C3O)C1OC1OCC(OC2OCC(O)C(OC3OCC(O)C(O)C3O)C2O)C(O)C1O (centres unmarked) [A19] | 1.17 |  |  | 17.9 | 94.8 ± 1.6 | 0.041 ± 0.005 | 435.61 |  |  |  |  |
| C=CC(C)(O)CC/C=C(\C)C(=O)OCC1OC(OC(=O)C23CCC4(C)C(=CCC5C6(C)CCC(OC7OC(COC8OC(CO)C(O)C(O)C8O)C(OC8OCC(O)C(O)C8OC8OCC(O)C(O)C8O)C(O)C7NC(C)=O)C(C)(C)C6CCC54C)C2CC(C)(C)C(O)C3O)C(OC2OCC(OC3OCC(O)(CO)C3O)C(O)C2O)C(O)C1OC1OC(CO)C(OC(C)=O)C(O)C1O (centres unmarked) [A17] | 1.49 |  |  | 18.1 | 94.9 ± 1.2 | 0.057 ± 0.003 | 317.89 |  |  |  |  |
| C[C@@H]1O[C@@H](O[C@@H]2[C@H](O)[C@@H](O)[C@H](O[C@H]3CC[C@@]4(C)C(CC[C@]5(C)C4C=C[C@]46OC[C@@]7(CCC(C)(C)CC74)[C@@H](O)C[C@]65C)C3(C)C)O[C@@H]2CO[C@@H]2O[C@H](CO)[C@@H](O)[C@H](O)[C@H]2O)[C@H](O)[C@H](O)[C@H]1O (some centres unmarked) [A04, Saikosaponin C] | >100 | > 100 | 3.1 ± 12.9 |  |  |  |  |  |  |  |  |
| C=CC(C)(O)CCCC(C)C(=O)OC1C(OC2OCC(OC3OC(CO)C(O)C(O)C3O)C(OC3OCC(O)C(OC4OC(CO)C(O)C(O)C4O)C3O)C2O)COC(OC(=O)C23CCC(C)(C)CC2C2=CCC4C5(C)CCC(OC6OC(CO)C(OC7OC(CO)C(O)C(OC8OCC(O)C(O)C8O)C7O)C(O)C6O)C(C)(C)C5CCC4(C)C2(C)CC3O)C1O (centres unmarked) [A10] | 2.2 |  |  | 39.1 |  | 0.31 ± 0.04 | 126.13 | 95.7 ± 0.6 |  |  |  |
| C/C=C(/C)C(=O)OC1CC(C)(C)CC2C3=CCC4C5(C)CCC(OC6OC(C)C(OC7OC(C(=O)O)C(O)C(OC8OC(CO)C(O)C(O)C8OC8OC(CO)C(O)C(O)C8O)C7O)C(O)C6O)C(C)(C)C5CCC4(C)C3(C)C(OC(=O)/C=C/C=C/C=C/CCC)C(O)C12CO (centres unmarked) [A14] | 5.9 |  |  | > 100 |  |  | 51.28 |  | 1.95 ± 0.12 | 89.3 ± 0.8 |  |
| C=CC(C)(O)CC/C=C(\C)C(=O)OC1C(OCC2OC(OC(=O)C34CCC(C)(C)CC3C3=CCC5C6(C)CCC(OC7OC(COC8OCC(O)C(O)C8OC8OCC(O)C(O)C8O)C(O)C(O)C7O)C(C)(C)C6CCC5(C)C3(C)CC4O)C(OC3OC(C)C(OC4OCC(O)C(OC5OCC(O)C(O)C5O)C4O)C(O)C3O)C(OC(=O)/C(C)=C/CCC(C)(O)C=C)C2O)OC(C)C(O)C1O (centres unmarked) [A21] | 11.64 |  |  | 56.7 |  | 0.63 ± 0.07 | 90.03 |  |  |  | 97.3 ± 1.1 |
| C=CC(C)(O)CC/C=C(\C)C(=O)OC1C(O)C(CO)OC(OC(=O)C23CCC(C)(C)CC2C2=CCC4C5(C)CCC(OC6OC(COC7OCC(O)C(O)C7OC7OCC(O)C(O)C7O)C(O)C(O)C6O)C(C)(C)C5CCC4(C)C2(C)CC3O)C1OC1OC(CO)C(OC2OCC(O)C(OC3OCC(O)C(O)C3O)C2O)C(O)C1O (centres unmarked) [A26] | 7.94 |  |  | 38.4 |  | 0.45 ± 0.04 | 85.24 |  |  |  | 95.6 ± 1.2 |
| C=CC(C)(O)CCCC(C)C(=O)OC1C(C)OC(OC(C)(C=C)CC/C=C(\CO)C(=O)OC2CC3(C(=O)OC4OCC(OC5OC(CO)C(O)C(OC6OC(CO)C(OC7OC(C)C(O)C(O)C7O)C(O)C6O)C5O)C(O)C4O)CCC4(C)C(=CCC5C6(C)CCC(OC7OC(CO)C(OC8OC(CO)C(O)C(OC9OCC(O)C(O)C9O)C8O)C(O)C7O)C(C)(C)C6CCC54C)C3CC2(C)C)C(O)C1O (centres unmarked) [A23] | 7.96 |  |  | 38.1 |  |  | 156.73 |  | 0.23 ± 0.02 | 93.5 ± 0.4 |  |
| C[C@H]1O[C@@H](O[C@H]2CC[C@@]3(C)[C@@H](CC[C@]4(C)[C@@H]3C=C[C@]35OC[C@@]6(CCC(C)(C)C[C@H]63)[C@@H](O)C[C@]54C)[C@]2(C)CO)[C@H](O)[C@@H](O[C@@H]2O[C@H](CO)[C@@H](O)[C@H](O)[C@H]2O)[C@H]1O [A03, Saikosaponin A] | 12.7 | 23.1 | 13.3 ± 8 |  |  |  |  |  |  |  |  |
